pIC50: −log10 of the molar value.
biological target: T1, BKB1 receptors (Homo sapiens, UniProt P46663); assay: Calcium mobilization assay (FLIPR), B1 receptors in IMR-90 cells; assay type: cell-based; settings: Human IMR-90 lung fibroblast cells, up-regulated BKB1 receptors, agonist desArg10-kallidin (DAKD) 2 to 8 nM, calcium-dependent fluorescence
T1 construct: Human (IMR-90) lung fibroblast cells expressing native B1 receptors; endogenous in cells; host or cells: IMR-90 human lung fibroblasts, interleukin-treated to up-regulate BKB1 receptors
T1 sequence (P46663 1-353): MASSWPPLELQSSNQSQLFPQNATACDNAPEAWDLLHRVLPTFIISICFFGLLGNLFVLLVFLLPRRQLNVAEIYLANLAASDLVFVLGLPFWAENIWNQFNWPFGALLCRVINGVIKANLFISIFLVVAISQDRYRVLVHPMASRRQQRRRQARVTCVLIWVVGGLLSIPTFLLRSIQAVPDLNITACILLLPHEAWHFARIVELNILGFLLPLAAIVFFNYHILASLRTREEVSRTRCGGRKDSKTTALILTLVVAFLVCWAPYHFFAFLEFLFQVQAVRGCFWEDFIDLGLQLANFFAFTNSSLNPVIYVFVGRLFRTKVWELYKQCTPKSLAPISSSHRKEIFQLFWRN
Procedure: Calcium mobilization assay (FLIPR)—Human (IMR-90) lung fibroblast cells expressing native B1 receptors were harvested by trypsinization and seeded into black wall/clear bottom 96-well plates (Costar 3904; Corning Life Sciences, Acton, Mass.) at approximately 13,000 cells/well. After 1 day incubation, cells were treated with […] (0.35 ng/ml) in 10% FBS/MEM for 2 h to up-regulate BKB1 receptors. Induced cells were loaded with fluorescent calcium indicator by incubation with 2.3 μM Fluo-4/acetoxymethyl ester (Invitrogen) at 37° C. for 1.5 h in the presence of an anion transport inhibitor (2.5 mM probenecid in 1% FBS/MEM). Extracellular dye was removed by washing with assay buffer (2.5 mM probenecid, 0.1% BSA in 20 mM HEPES/HBSS without bicarbonate or phenol red, pH 7.5) and cell plates were kept in the dark until used. Test compounds were assayed at eight concentrations in triplicate. Addition of test compounds to the cell plate and incubation for 5 min at 35° C., followed by the addition of 2 to 8 nM final BK1 agonist desArg^10-kallidin (DAKD, 3×EC50) was carried out in the fluorimetric imaging plate reader (FLIPR; Molecular Devices) while continuously monitoring calcium-dependent fluorescence.

Row | SMILES | pIC50
1 | CCOCCCNC(=O)C(C)c1cccc(Nc2cc(OC)cc(C(F)(F)F)c2)c1 (stereo not drawn) [Compound 52, 2-(3-{[3-methoxy-5-(trifluoromethyl)phenyl]amino}phenyl)-N-(3-ethoxypropyl)propanamide] | 5.05
2 | CC(C(=O)NCCC1CCCN1C)c1ccc(Oc2cccc3ccccc23)cc1 (stereo not drawn) [Compound 65, 2-[4-(naphthalen-1-yloxy)phenyl]-N-[2-(1-methylpyrrolidin-2-yl)ethyl]propanamide] | 5.32
3 | CC(C(=O)Nc1ccncc1)c1cccc(Nc2ccc(F)cc2)c1 (stereo not drawn) [Compound 74, 2-{3-[(4-fluorophenyl)amino]phenyl}-N-(pyridin-4-yl)propanamide] | 6.00

Reference: patent US20120316169A1, “2-ARYL-PROPIONAMIDE DERIVATIVES USEFUL AS BRADYKININ RECEPTOR ANTAGONISTS AND PHARMACEUTICAL COMPOSITIONS CONTAINING THEM” (DOMPÉ S.P.A., priority 2009, published 2012)
